Test results taken from the NIST ThermoML archive (doi:10.1021/je500498m).
“And” between values parts separate entries of the source, which are not always exact repeats. Equal values may be shown once. ± gives the expanded uncertainty stated by the source.

How the values were obtained:
[1] = for speed of sound: 100 kPa, Sing-around technique in a fixed-path interferometer; for speed of sound / viscosity / mass density: Liquid; for viscosity / mass density: 101 kPa; for viscosity: Falling or rolling sphere viscometry; for mass density: Vibrating tube method; for surface tension liquid-gas: 294.4 K, Pendant drop shape
[2] = xn = mol fraction of the nth substance listed; details: x1 = 1; for speed of sound: 100 kPa, Sing-around technique in a fixed-path interferometer; for speed of sound / viscosity / mass density: Liquid; for viscosity / mass density: 101 kPa; for viscosity: Falling or rolling sphere viscometry; for mass density: Vibrating tube method; for surface tension liquid-gas: 294.4 K, Pendant drop shape

CCc1ccccc1 [ethylbenzene]
[1]
Details | mass density [kg/m3] | speed of sound [m/s] | viscosity [mPa·s]
293.15 K | 866.95 ± 0.31 | 1339.7 ± 0.7 | 0.67 ± 0.01
303.15 K | 858.15 ± 0.31 | 1298.1 ± 0.7 | 0.59 ± 0.01
313.15 K | 849.29 ± 0.31 | 1256.9 ± 0.7 | –
323.15 K | 840.38 ± 0.31 | 1216.4 ± 0.7 | 0.48 ± 0.01
333.15 K | 831.4 ± 0.32 | 1176.4 ± 0.7 | 0.44 ± 0.01
343.15 K | 822.3 ± 0.3 | – | 0.4 ± 0.01
353.15 K | 813.1 ± 0.3 | – | 0.36 ± 0.01
363.15 K | 803.7 ± 0.3 | – | 0.33 ± 0.01
373.15 K | 794.2 ± 0.3 | – | 0.31 ± 0.01

Details | surface tension liquid-gas [mN/m]
[1] | 29.2 ± 0.4

CCCCCCCCCCCCCCCC [hexadecane]
[1]
Details | mass density [kg/m3] | speed of sound [m/s] | viscosity
293.15 K | 773.49 ± 0.33 | 1357.3 ± 0.9 | 3.44 ± 0.03 mPa·s
303.15 K | 766.55 ± 0.34 | 1320 ± 0.9 | 2.72 ± 0.02 mPa·s
313.15 K | 759.63 ± 0.34 | 1283.3 ± 0.9 | –
323.15 K | 752.71 ± 0.34 | 1247.3 ± 0.9 | 1.82 ± 0.02 mPa·s
333.15 K | 745.79 ± 0.34 | 1212 ± 0.9 | 1.54 ± 0.02 mPa·s and 1.53 ± 0.02 mPa·s
343.15 K | 738.9 ± 0.3 | – | 1.31 ± 0.02 mPa·s
353.15 K | 731.8 ± 0.3 | – | 1.13 ± 0.01 mPa·s
363.15 K | 724.7 ± 0.3 | – | 0.99 ± 0.01 mPa·s
373.15 K | 717.5 ± 0.3 | – | 0.87 ± 0.01 mPa·s

Details | surface tension liquid-gas [mN/m]
[1] | 27.3 ± 0.4

CCc1ccccc1 [ethylbenzene] + CCCCCCCCCCCCCCCC
[2]
Details | mass density [kg/m3] | speed of sound [m/s] | viscosity [mPa·s]
293.15 K | 866.95 ± 0.31 | 1339.7 ± 0.7 | 0.67 ± 0.01
303.15 K | 858.15 ± 0.31 | 1298.1 ± 0.7 | 0.59 ± 0.01
313.15 K | 849.29 ± 0.31 | 1256.9 ± 0.7 | –
323.15 K | 840.38 ± 0.31 | 1216.4 ± 0.7 | 0.48 ± 0.01
333.15 K | 831.4 ± 0.32 | 1176.4 ± 0.7 | 0.44 ± 0.01
343.15 K | 822.3 ± 0.3 | – | 0.4 ± 0.01
353.15 K | 813.1 ± 0.3 | – | 0.36 ± 0.01
363.15 K | 803.7 ± 0.3 | – | 0.33 ± 0.01
373.15 K | 794.2 ± 0.3 | – | 0.31 ± 0.01

Details | surface tension liquid-gas [mN/m]
[2] | 29.2 ± 0.4

Cc1ccccc1 [toluene]
[1]
Details | mass density [kg/m3] | speed of sound [m/s] | viscosity [mPa·s]
293.15 K | 866.84 ± 0.31 | 1326.8 ± 0.8 | 0.59 ± 0.01
303.15 K | 857.53 ± 0.31 | 1283.7 ± 0.7 | 0.52 ± 0.01
313.15 K | 848.14 ± 0.32 | 1241.1 ± 0.7 | –
323.15 K | 838.7 ± 0.32 | 1199 ± 0.7 | 0.42 ± 0.01
333.15 K | 829.16 ± 0.32 | 1157.6 ± 0.7 | 0.38 ± 0.01
343.15 K | 819.6 ± 0.3 | – | 0.35 ± 0.01
353.15 K | 809.7 ± 0.3 | – | 0.32 ± 0.01
363.15 K | 799.7 ± 0.3 | – | 0.27 ± 0.01

Details | surface tension liquid-gas [mN/m]
[1] | 28.4 ± 0.4

Cc1ccccc1 [toluene] + CCCCCCCCCCCCCCCC
[2]
Details | mass density [kg/m3] | speed of sound [m/s] | viscosity [mPa·s]
293.15 K | 866.84 ± 0.31 | 1326.8 ± 0.8 | 0.59 ± 0.01
303.15 K | 857.53 ± 0.31 | 1283.7 ± 0.7 | 0.52 ± 0.01
313.15 K | 848.14 ± 0.32 | 1241.1 ± 0.7 | –
323.15 K | 838.7 ± 0.32 | 1199 ± 0.7 | 0.42 ± 0.01
333.15 K | 829.16 ± 0.32 | 1157.6 ± 0.7 | 0.38 ± 0.01
343.15 K | 819.6 ± 0.3 | – | 0.35 ± 0.01
353.15 K | 809.7 ± 0.3 | – | 0.32 ± 0.01
363.15 K | 799.7 ± 0.3 | – | 0.27 ± 0.01

Details | surface tension liquid-gas [mN/m]
[2] | 28.4 ± 0.4
